The results in this text go back to article PMC12073402, “A Selective MAP3K1 Inhibitor Facilitates Discovery of NPM1 as a Member of the Network” (Molecules, 2025).

What all share (experiment): KiNativ kinome profiling in PANC-1 lysate
Holding throughout (assay type): binding

In one experiment the test system is ABL, ARG. Conditions: 5 µM. An excerpt:
(§1) To assess target engagement and selectivity, we opted to conduct a kinome screen (KiNativ) in PANC-1 cell lysates. This chemical proteomics (chemoproteomics) methodology allows for the evaluation of small-molecule binding to protein kinases in native systems such as cell lysates. KiNativ utilizes a soluble chemical probe comprising ATP linked to biotin through an acyl-phosphate bond. The probe covalently modifies conserved lysine residues found in the ATP binding site of essentially all protein kinases (Figure 2A). To profile a kinase inhibitor, cell lysates are treated with a vehicle control or inhibitor prior to addition of the desthiobiotin ATP probe. The ATP probe occupies the ATP binding site in the kinase, which enables the conserved lysines to be biotinylated. […] The cell lysates are digested with a protease (trypsin), biotinylated peptides are affinity-enriched on streptavidin beads, and the labeled peptides are analyzed by liquid chromatography–tandem MS (Figure 2B). If an inhibitor binds to a kinase, it competes with the ATP, thus resulting in a loss of that kinase-associated peptide signal, allowing for the quantitative measurement of inhibitor binding. Unlike recombinant enzyme assays, KiNativ IC50 values are a direct measure of active site binding instead of enzymatic activity.
(§2) Kinome profiling quantified the activity of 51-106 against >300 kinases in the PANC-1 cells. The results summarized in Figure 2C are the average of duplicate control and duplicate treated samples with 5 μM of 51-106 or DMSO.
(§3) KiNativ assay with 51-106.
(§4) ATP Loop: ATP binding loop
(§5) Activation Loop: Activation loop
(§6) ATP: ATP site in non-canonical kinase (e.g. lipid kinase)
(§7) Protein Kinase Domain: Other lysine within kinase domain, possibly not in ATP binding site
(§8) Other: Labeling of residue outside of the protein kinase domain, possibly not in ATP binding site
(§9) No change. NB = No Binding (≤ 0)
(§10) >100% increase in MS signal (>2 fold increase)
(§11) Data points inhibited […] & not considered significant are left uncolored
(§12) Note: This KiNativ dataset is the result of an analysis of duplicate treated samples and control samples.
(§13) The % changes in MS signals being reported are statistically significant (Student T -test score < 0.04)

Another experiment concerns the target T1, BRAF, BRAF V600E (Homo sapiens, UniProt P15056).
T1 construct: endogenous in cells; host or cells: PANC-1 cell lysate
Conditions: Lys2.
Excerpt: as §1, §2, §3, §4, §5, §6, §7, §8, §9, §10, §11, §12, §13

In another experiment the target is T2, CaMK1d (Homo sapiens, UniProt Q8IU85).
T2 construct: endogenous in cells; host or cells: PANC-1 cell lysate
Excerpt: as §1, §2, §3, §4, §5, §6, §7, §8, §9, §10, §11, §12, §13

In another experiment the target is T3, FAM20B (Homo sapiens, UniProt O75063).
T3 construct: endogenous in cells; host or cells: PANC-1 lysate
Conditions: ATP.
Excerpt: as §1, §2, §3, §4, §5, §6, §7, §8, §9, §10, §11, §12, §13

Another experiment has as its target T4, HER3/ErbB3 (Homo sapiens, UniProt P21860).
T4 construct: we opted to conduct a kinome screen (KiNativ) in PANC-1 cell lysates; endogenous in cells; host or cells: PANC-1 cell lysate
Excerpt: as §1, §2, §3, §4, §5, §6, §7, §8, §9, §10, §11, §12, §13

The target in another experiment is T5, LKB1 (Homo sapiens, UniProt Q15831).
T5 construct: we opted to conduct a kinome screen (KiNativ) in PANC-1 cell lysates; endogenous in cells; host or cells: PANC-1 cell lysate
Conditions: Lys2.
Excerpt: as §1, §2, §3, §4, §5, §6, §7, §8, §9, §10, §11, §12, §13

For the next experiment, the target named is T6, MRCKb (Homo sapiens, UniProt Q9Y5S2).
T6 construct: endogenous in cells; host or cells: PANC-1
Conditions: Lys2.
Excerpt: as §1, §2, §3, §4, §5, §6, §7, §8, §9, §10, §11, §12, §13

For another experiment, the target named is T7, NEK3 (Homo sapiens, UniProt P51956).
T7 construct: endogenous in cells; host or cells: PANC-1 cell lysate
Conditions: ATP Loop.
Excerpt: as §1, §2, §3, §4, §5, §6, §7, §8, §9, §10, §11, §12, §13

In a further experiment the target is T8, NLK (Homo sapiens, UniProt Q9UBE8).
T8 construct: endogenous in cells; host or cells: PANC-1 cell lysate
Conditions: Lys2.
Excerpt: as §1, §2, §3, §4, §5, §6, §7, §8, §9, §10, §11, §12, §13

In a further experiment the target is T9, PI4K2B (Homo sapiens, UniProt Q8TCG2).
T9 construct: endogenous in cells; host or cells: PANC-1 cell lysate
Conditions: ATP.
Excerpt: as §1, §2, §3, §4, §5, §6, §7, §8, §9, §10, §11, §12, §13

The next experiment deals with T10, PIK3CA (Homo sapiens, UniProt P42336).
T10 construct: endogenous in cells; host or cells: PANC-1 cell lysate
Conditions: ATP.
Excerpt: as §1, §2, §3, §4, §5, §6, §7, §8, §9, §10, §11, §12, §13

Another experiment has as its target T11, PIP4K2C (Homo sapiens, UniProt Q8TBX8).
T11 construct: endogenous in cells; host or cells: PANC-1 cell lysate
Conditions: ATP.
Excerpt: as §1, §2, §3, §4, §5, §6, §7, §8, §9, §10, §11, §12, §13

The target in a further experiment is T12, PKD3 (Homo sapiens, UniProt O94806).
T12 construct: endogenous in cells; host or cells: PANC-1 cell lysate
T12 sequence (O94806 1-890): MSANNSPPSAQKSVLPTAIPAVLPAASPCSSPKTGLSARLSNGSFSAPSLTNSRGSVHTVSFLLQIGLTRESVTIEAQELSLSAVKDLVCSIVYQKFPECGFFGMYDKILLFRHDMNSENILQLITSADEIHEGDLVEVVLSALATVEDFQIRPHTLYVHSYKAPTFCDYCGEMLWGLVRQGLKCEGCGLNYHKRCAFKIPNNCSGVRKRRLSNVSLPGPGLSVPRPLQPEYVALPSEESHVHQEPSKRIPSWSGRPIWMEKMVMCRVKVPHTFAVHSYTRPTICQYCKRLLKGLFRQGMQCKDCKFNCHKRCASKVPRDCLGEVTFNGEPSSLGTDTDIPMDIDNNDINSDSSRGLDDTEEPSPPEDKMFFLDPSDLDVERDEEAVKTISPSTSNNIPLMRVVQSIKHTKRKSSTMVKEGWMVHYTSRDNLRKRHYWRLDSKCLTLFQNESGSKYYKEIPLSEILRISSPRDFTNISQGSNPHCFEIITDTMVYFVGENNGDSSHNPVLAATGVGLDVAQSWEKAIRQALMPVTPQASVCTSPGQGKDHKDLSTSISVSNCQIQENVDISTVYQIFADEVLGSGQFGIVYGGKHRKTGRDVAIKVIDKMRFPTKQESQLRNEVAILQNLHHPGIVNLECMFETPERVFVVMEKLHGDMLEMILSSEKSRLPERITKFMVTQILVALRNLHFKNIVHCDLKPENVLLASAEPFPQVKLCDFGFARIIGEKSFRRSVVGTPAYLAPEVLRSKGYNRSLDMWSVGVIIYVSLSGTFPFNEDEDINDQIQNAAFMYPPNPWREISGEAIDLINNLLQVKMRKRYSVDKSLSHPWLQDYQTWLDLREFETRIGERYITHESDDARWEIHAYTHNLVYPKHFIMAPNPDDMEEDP
Excerpt: as §1, §2, §3, §4, §5, §6, §7, §8, §9, §10, §11, §12, §13

In another experiment the target is T13, SLK (Homo sapiens, UniProt Q9H2G2).
T13 construct: endogenous in cells; host or cells: PANC-1 cell lysate
Excerpt: as §1, §2, §3, §4, §5, §6, §7, §8, §9, §10, §11, §12, §13

T4 sequence (P21860 20-1342): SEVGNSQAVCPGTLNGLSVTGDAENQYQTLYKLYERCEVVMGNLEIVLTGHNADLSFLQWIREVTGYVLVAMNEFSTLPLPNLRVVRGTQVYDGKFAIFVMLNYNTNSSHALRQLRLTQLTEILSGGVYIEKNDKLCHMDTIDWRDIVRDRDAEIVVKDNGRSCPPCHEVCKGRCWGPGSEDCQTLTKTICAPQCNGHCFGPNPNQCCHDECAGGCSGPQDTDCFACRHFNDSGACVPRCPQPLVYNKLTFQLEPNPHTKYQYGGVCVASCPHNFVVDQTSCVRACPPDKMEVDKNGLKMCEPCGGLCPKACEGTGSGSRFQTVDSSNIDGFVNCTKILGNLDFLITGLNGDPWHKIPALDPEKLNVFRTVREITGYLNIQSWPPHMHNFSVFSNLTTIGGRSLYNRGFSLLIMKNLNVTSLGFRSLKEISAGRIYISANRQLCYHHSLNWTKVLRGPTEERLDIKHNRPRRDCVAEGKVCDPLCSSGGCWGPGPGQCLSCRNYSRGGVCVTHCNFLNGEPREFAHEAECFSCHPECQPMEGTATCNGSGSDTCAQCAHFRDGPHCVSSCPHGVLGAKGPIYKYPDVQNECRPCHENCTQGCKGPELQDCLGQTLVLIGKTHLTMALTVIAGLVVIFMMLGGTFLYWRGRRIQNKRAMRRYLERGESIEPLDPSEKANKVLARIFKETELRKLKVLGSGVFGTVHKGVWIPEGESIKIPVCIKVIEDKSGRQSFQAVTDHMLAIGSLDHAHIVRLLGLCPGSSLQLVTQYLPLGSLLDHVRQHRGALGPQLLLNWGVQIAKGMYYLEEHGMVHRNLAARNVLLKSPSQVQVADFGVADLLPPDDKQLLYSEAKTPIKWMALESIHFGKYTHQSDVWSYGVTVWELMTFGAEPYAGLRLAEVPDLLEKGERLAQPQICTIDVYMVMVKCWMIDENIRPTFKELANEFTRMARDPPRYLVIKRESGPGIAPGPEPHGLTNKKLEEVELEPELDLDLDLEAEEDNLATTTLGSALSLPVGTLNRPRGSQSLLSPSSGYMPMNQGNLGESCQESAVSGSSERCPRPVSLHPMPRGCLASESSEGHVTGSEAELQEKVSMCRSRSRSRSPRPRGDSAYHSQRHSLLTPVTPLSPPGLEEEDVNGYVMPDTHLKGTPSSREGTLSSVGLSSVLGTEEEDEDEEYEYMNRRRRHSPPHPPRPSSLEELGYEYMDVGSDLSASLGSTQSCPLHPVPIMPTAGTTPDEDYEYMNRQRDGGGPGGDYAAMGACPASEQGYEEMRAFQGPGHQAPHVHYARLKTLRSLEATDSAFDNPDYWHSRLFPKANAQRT
T11 sequence (Q8TBX8 whole entry): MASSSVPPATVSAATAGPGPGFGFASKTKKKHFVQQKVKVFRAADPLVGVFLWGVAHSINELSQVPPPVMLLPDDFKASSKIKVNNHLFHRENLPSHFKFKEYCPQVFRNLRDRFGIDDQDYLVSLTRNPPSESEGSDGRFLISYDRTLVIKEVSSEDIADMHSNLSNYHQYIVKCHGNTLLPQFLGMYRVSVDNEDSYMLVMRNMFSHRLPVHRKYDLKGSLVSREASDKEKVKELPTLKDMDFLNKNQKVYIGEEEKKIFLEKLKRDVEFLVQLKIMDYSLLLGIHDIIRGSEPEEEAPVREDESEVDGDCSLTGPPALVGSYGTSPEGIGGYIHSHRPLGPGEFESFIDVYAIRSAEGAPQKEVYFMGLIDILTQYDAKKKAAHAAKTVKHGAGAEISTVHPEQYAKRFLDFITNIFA
T13 sequence (Q9H2G2 whole entry): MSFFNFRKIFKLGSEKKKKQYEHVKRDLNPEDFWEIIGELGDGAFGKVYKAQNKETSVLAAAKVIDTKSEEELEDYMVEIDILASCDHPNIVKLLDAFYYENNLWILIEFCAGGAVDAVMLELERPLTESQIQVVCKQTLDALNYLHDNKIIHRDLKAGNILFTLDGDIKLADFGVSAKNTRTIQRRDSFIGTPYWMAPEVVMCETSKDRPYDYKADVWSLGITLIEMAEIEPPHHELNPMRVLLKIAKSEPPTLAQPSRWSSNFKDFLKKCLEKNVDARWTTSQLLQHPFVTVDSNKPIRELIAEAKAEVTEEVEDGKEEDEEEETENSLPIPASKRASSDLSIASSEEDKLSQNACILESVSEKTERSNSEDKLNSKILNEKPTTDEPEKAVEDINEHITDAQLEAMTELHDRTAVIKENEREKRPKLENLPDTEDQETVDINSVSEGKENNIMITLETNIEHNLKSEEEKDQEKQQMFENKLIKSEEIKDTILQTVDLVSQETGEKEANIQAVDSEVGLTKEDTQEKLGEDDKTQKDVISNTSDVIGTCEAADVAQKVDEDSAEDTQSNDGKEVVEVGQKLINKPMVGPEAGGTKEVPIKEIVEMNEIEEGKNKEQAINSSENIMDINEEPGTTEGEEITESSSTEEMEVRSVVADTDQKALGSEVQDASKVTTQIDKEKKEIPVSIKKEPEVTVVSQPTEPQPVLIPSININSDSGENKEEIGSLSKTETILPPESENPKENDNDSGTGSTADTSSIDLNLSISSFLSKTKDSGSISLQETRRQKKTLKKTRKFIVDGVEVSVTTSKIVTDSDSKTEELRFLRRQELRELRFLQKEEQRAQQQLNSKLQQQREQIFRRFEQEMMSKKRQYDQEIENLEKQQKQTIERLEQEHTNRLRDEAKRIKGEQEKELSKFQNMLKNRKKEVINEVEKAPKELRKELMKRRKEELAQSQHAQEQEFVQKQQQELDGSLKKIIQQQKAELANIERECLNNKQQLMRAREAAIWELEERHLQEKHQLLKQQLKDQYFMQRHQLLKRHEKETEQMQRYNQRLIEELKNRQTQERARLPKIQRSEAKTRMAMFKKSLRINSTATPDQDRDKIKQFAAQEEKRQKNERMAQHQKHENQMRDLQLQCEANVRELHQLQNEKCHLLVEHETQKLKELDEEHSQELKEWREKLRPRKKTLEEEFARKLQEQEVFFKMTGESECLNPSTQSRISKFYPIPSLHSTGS
T2 sequence (Q8IU85 whole entry): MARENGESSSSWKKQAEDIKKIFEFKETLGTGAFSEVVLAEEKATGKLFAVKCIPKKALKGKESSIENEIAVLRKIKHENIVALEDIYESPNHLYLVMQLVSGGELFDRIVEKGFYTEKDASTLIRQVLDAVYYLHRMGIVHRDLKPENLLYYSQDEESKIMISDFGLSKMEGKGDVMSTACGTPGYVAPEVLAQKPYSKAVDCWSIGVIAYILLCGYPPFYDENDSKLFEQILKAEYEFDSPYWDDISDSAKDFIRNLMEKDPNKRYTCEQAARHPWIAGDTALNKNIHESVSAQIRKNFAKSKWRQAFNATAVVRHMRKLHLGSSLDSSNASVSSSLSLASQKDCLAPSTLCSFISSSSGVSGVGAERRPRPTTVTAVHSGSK
T3 sequence (O75063 whole entry): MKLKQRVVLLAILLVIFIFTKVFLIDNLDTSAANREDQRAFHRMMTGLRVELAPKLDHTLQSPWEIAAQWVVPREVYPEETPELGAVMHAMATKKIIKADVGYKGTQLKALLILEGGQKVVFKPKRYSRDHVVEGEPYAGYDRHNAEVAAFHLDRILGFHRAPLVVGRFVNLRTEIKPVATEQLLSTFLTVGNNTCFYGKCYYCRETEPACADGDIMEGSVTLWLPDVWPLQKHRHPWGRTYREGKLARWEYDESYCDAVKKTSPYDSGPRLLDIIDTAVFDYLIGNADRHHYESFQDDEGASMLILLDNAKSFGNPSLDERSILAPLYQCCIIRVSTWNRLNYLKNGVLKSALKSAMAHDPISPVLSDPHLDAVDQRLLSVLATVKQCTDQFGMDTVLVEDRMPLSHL
T8 sequence (Q9UBE8 whole entry): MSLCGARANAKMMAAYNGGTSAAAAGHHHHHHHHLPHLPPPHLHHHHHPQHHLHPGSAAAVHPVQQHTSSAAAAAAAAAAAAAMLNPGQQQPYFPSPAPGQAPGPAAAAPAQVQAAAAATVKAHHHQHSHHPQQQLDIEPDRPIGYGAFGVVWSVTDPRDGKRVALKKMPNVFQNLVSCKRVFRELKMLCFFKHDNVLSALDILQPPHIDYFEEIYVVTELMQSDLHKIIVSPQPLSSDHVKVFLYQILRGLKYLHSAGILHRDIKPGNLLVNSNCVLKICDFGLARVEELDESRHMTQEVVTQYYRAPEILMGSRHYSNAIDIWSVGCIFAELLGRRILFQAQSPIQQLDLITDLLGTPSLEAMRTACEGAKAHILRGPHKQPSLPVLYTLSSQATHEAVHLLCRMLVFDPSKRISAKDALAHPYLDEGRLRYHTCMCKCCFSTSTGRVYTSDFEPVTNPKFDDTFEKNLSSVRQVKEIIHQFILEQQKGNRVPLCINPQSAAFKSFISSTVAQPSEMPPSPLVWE
T1 sequence (P15056 2-766 V600E limits assumed): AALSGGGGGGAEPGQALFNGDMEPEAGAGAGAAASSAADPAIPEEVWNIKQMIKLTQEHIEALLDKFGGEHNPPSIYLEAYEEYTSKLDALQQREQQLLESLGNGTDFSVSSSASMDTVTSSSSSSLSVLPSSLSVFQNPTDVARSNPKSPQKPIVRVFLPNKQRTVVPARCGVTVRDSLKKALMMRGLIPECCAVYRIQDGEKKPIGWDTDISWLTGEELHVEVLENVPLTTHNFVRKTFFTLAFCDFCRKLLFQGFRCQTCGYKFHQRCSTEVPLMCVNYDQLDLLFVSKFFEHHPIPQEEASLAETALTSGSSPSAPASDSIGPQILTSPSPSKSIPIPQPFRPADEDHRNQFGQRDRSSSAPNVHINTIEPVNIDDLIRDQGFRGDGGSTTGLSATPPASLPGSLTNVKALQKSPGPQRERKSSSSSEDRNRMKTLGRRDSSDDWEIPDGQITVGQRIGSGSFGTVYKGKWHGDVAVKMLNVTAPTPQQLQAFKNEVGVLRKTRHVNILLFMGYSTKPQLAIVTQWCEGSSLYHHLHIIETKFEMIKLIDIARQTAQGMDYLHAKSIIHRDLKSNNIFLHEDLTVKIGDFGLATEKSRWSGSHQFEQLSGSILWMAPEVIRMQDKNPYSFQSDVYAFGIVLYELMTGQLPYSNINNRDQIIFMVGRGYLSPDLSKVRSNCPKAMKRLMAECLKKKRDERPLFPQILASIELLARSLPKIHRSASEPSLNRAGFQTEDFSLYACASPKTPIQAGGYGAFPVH

As usually defined, the % Inhibition is the change of the read-out against control, counted positive when it falls. The low end stands for a weak effect, the high end for a strong effect. What is called inhibition is the share of the control response that was lost under treatment. On to `Cn1cc(-c2cnc3ccc(NC(=O)Nc4ccc(F)c(C(F)(F)F)c4)cc3n2)cn1` [51-106, 1-(4-Fluoro-3-(trifluoromethyl)phenyl)-3-(3-(1-methyl-1H-pyrazol-4-yl)quinoxalin-6-yl)urea], for which the “% Inhibition” value with ABL, ARG (Activation Loop, LMTGDTYTAHAGAKFPIK) is listed as “NB (NB = No Binding (≤ 0))”; in the experiment on ABL, ARG (Lys1, YSLTVAVKTLK), 3.5%; in the experiment with ABL, ARG (Lys1, YSLTVAVKTLKEDTMEVEEFLK), “NB (NB = No Binding (≤ 0))”; on PKD3 (5 µM, Lys1, DVAIKVIDK), 27.0%. Further, the inhibition at 5 µM against BRAF, BRAF V600E was 0.5%; against CaMK1d (Lys1, LFAVKCIPK) it was 30.3%; against CaMK1d (Lys2, DLKPENLLYYSQDEESK), no more than 0%; at FAM20B it was 6.6%; against HER3/ErbB3 (ATP Loop, SPSQVQVADFGVADLLPPDDKQLLYSEAKTPIK) it was 2%; against HER3/ErbB3 (Lys1, GVWIPEGESIKIPVCIKVIEDK), no more than 0%. In addition, the inhibition at 5 µM against LKB1 was no more than 0%; at MRCKb, no more than 0%; at NEK3 it was 5.1%; at NLK, 5.9%; on PI4K2B it was 6.4%; against PIK3CA, no more than 0%. Also, the inhibition at 5 µM against PIP4K2C (TLVIKEVSSEDIADMHSNLSNYHQYIVK) is 21.8%; against PIP4K2C (VKELPTLKDMDFLNK), no more than 0%; on PKD3 (Lys1, DVAIKVIDK), 27%; at PKD3 (Lys2, NIVHCDLKPENVLLASAEPFPQVK), no more than 0%; against SLK (Lys1, AQNKETSVLAAAKVIDTK), no more than 0%; against SLK (Lys2, DLKAGNILFTLDGDIK), 7%.
